Measurements published in patent publication US20180050993A1, “NOVEL FLUORINATED DERIVATIVES AS EGFR INHIBITORS USEFUL FOR TREATING CANCERS” (Trillium Therapeutics Inc., priority 2015, published 2018).
Structures can show the parent of a compound that is named as a salt. Where two headings read alike, the source gives them in different places.

What was measured:
[1] = Brain concentrations after PO administration in rat, peak at 8 hours (Table 5); format: in vivo; conditions: Table 5 (8 hours); for Kp at 8 h: brain/plasma, po, 50 mg/kg
[2] = molecular target: T1, EPHA6 (Homo sapiens, UniProt Q9UF33); experiment: Kinome screen at 300 nM (qPCR competition binding); parameters: purchased DiscoveRx; host or cells: E. coli BL21-derived (T7 phage) or HEK-293; conditions: result in words
T1 sequence (Q9UF33 23-1036): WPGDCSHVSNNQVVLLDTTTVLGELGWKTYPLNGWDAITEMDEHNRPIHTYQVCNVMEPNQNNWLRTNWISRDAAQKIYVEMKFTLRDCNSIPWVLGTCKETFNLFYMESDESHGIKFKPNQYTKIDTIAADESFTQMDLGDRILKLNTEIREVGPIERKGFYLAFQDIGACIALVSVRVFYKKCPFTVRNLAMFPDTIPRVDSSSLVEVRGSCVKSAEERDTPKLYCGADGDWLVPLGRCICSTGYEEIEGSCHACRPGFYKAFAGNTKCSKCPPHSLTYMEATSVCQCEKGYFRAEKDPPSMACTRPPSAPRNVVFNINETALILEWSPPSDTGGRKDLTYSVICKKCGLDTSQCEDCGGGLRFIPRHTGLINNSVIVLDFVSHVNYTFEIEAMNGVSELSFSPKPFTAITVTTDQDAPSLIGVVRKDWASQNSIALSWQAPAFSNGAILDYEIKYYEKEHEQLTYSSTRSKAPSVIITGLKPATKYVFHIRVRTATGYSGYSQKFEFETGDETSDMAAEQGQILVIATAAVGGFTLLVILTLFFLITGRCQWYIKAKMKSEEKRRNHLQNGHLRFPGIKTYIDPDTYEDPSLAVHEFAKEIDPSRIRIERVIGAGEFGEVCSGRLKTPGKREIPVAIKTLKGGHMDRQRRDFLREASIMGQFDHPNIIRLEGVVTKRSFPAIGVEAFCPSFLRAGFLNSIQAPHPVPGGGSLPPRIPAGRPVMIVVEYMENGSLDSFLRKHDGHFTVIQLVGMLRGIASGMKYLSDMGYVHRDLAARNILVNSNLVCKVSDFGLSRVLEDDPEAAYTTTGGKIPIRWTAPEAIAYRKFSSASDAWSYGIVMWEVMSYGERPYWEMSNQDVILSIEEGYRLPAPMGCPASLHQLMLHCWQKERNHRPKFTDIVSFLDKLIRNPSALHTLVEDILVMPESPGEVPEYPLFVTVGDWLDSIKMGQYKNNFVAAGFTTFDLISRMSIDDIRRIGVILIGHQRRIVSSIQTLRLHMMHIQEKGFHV

[3] = Brain and plasma concentrations after oral gavage in rat, sampling to 4 hours (Table 4); format: in vivo; conditions: Table 4 (4 hours); for Kp at 4 h: brain/plasma, po, 50 mg/kg
[4] = molecular target: T1, EPHA6; experiment: Binding constants (Kd) for EPHA6, kinase competition binding with qPCR readout
[5] = Sprague-Dawley, brain, PO 50 mg/kg
[6] = male, Sprague-Dawley (SD), brain tissue, PO 50 mg/kg

**Q.** Which Cmax [1, 5] does the source give for `Fc1ccc(Nc2ncnc3cc(OCCOC(F)F)c(OCCOC(F)F)cc23)c(F)c1Cl` [Compound 2D•HCl, N-(3-chloro-2,4-difluoro-phenyl)-6,7-bis[2-(difluoromethoxy)ethoxy]quinazolin-4-amine] here?
**A.** Its Cmax is 6340 ng/g.

**Q.** And the Tmax [1, 5]?
**A.** Its Tmax is 8 h.

**Q.** What about the Kp at 8 h ([1]; Sprague-Dawley, read-out: AUCLast Ratio (Brain/Plasma)) of the same compound?
**A.** The Kp at 8 h was 1.92.

**Q.** And the Kp at 8 h ([1]; Sprague-Dawley, read-out: Cmax Ratio (Brain/Plasma))?
**A.** Its Kp at 8 h is 2.07.

**Q.** And the AUCInf ([1]; brain, PO 50 mg/kg)?
**A.** Its AUCInf is 101339 ng·h/g.

**Q.** What about the AUClast ([1]; brain, PO 50 mg/kg) of the same compound?
**A.** Its AUClast is 99996 ng·h/g.

**Q.** What about the “selectivity over erlotinib for the ephrin receptor kinase, EPHA6” value [2] of the same compound?
**A.** The value was “did show selectivity over erlotinib”.

**Q.** What about the AUClast ([3]; brain tissue, PO 50 mg/kg) of the same compound?
**A.** Its AUClast is 25272 ng·h/g.

**Q.** And the Cmax [3, 6]?
**A.** The Cmax was 8040 ng/g.

**Q.** And the Tmax [3, 6]?
**A.** The Tmax was 4 h.

**Q.** What about the Kp at 4 h ([3]; male, Sprague-Dawley (SD), read-out: AUCLast Ratio (Brain/Plasma)) of the same compound?
**A.** The Kp at 4 h was 2.05.

**Q.** And the Kp at 4 h ([3]; male, Sprague-Dawley (SD), read-out: Cmax Ratio (Brain/Plasma))?
**A.** Its Kp at 4 h is 2.01.

**Q.** And the Kd [4]?
**A.** Its Kd is 2.5 nM.
